Test results published in patent publication US20160235752A1, “COMPOSITIONS, METHODS OF USE, AND METHODS OF TREATMENT” (THE UNIVERSITY OF NEW ORLEANS, priority 2013, published 2016).
Converted amounts (≈) assume the structure as drawn.

Tests used:
[1] = test system: C. glabrata strain CS117.93; test: Testing for respiratory deficiencies: growth in YPD, YPG, YPE; assay type: cell-based, Candida glabrata
Protocol: (§1) FIGS. 2A and 2B illustrates BA22 activity is enhanced when Candida growth depends upon non-fermentable carbon sources. C. albicans strain SC5314 (FIG. 2A) or C. glabrata strain CS117.93 (FIG. 2B) were grown in medium with 2% glucose (YPD), 3% glycerol (YPG) or 3% ethanol (YPE) at pH 6.5, in dose response experiments with BA22. After 24 hours incubation at 30° C., growth was measured by OD600nm. Growth at each concentration of BA22 is shown as % growth relative to the minus drug (DMSO) control. Data shown is representative of two repeat experiments.
(§2) Considering the significant growth inhibition and lack of overall lack of cytotoxicity of many of the phenylhydrazones, we further explored potential mechanisms of action using the compound BA22 as a representative drug. We initially observed that in the presence of BA22, C. albicans formed small colonies similar to respiration deficient ‘petite’ mutants previously described for Saccharomyces. […] We therefore determined if BA22 affected the ability of C. albicans or C. glabrata to use glycerol or ethanol as carbon sources. […]
(§3) Respiratory deficiencies were examined using YPD (2% glucose), YPE (3% ethanol), or YPG (3% glycerol)^31. […] After 24 and 48 hours incubation at 30° C., growth was quantified by measuring OD600nm using a BioTek plate reader. Growth at each BA concentration was then expressed as % growth vs. the DMSO control of the same medium.

[2] = test system: C. albicans; test: Colony formation on agar plates enriched with BA22; assay type: cell-based, Candida albicans; conditions: agar plates enriched with a range of BA22 concentrations; data not shown
Description: Considering the significant growth inhibition and lack of overall lack of cytotoxicity of many of the phenylhydrazones, we further explored potential mechanisms of action using the compound BA22 as a representative drug. We initially observed that in the presence of BA22, C. albicans formed small colonies similar to respiration deficient ‘petite’ mutants previously described for Saccharomyces. […] This phenotype somewhat resembles that of respiration deficient ‘petite’ mutants, which are unable to utilize non-fermentable carbon sources such as glycerol and ethanol^30. We therefore determined if BA22 affected the ability of C. albicans or C. glabrata to use glycerol or ethanol as carbon sources. The concentrations of BA22 required to inhibit the growth of either fungi were much lower when glycerol or ethanol is provided as a carbon source versus glucose (FIG. 2). […] Growth inhibition occurred at higher BA22 concentrations in glucose medium, possibly indicating an additional secondary mechanism.

[3] = test system: Candida glabrata (ATCC no. 48435); test: MIC determination by broth microdilution (NCCLS), visual scoring; assay type: cell-based; conditions: for MIC80: Nakaseomyces glabratus, ATCC48435, read-out: MIC80 C. glabrata
[4] = test system: C. albicans strain SC5314; test: Testing for respiratory deficiencies: growth in YPD, YPG, YPE; assay type: cell-based, Candida albicans
Protocol: as §1, §2, §3

[5] = test system: Candida albicans (ATCC no. 10231); test: MIC determination by broth microdilution (NCCLS), visual scoring; assay type: cell-based; conditions: for MIC80: Candida albicans, ATCC10231, read-out: MIC80 C. albicans
In short: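 NCCLS broth microdilution in RPMI 1640 with 10 mM HEPES, final compound 0.5–128 μg/mL, DMSO ≤1%. Inoculum from 0.5 McFarland stock diluted 1:50; incubated 35 °C for 48–72 h. MIC scored visually as lowest concentration giving ~80% growth reduction versus drug-free wells.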

[6] = test system: Vero cells (African green monkey kidney cells-ATCC no. CRL-1651); test: In vitro mammalian cell toxicity (Promega CellTiter 96, MTT); assay type: cell-based; conditions: cells from the kidney origin; 24 hours; concentration not given
Protocol: Finally, in vitro mammalian cell toxicity studies were done using both mammalian kidney cells and human liver cells (Vero (kidney) cells-ATCC no. CRL-1651 and Hep G2 (liver) ATCC no. HB-8065) on all derivatives that had antifungal activity of less than 8 μg/mL. Cytotoxicity studies were performed in accordance with Promega CellTiter 96 Non-RadioactivCell Proliferation Assay (cat # G4000). The data is presented as the percent cells that remain viable, compared to the negative control, which was set to 100%. BA22, BA23 and BA73 had minimal toxicity in the kidney cells, with over 80% cells viable even at a concentration 10 times higher than the MIC (Table 7).
Cytotoxicity was determined using non-cancerous Vero cells (African green monkey kidney cells-ATCC no. CRL-1651) and Hep G2 (liver) (ATCC no. HB-8065) cells in accordance with Promega CellTiter 96 Non-RadioactivCell Proliferation Assay (cat # G4000). Cells were grown for 24 h at 37° C. and 5% CO2 in a 96-well culture plate. All compounds with MIC≦8 μg/ml were further screened in the MTT assays using both cell types. Compounds that fit these criteria were diluted in media to the testing dilution amounts: the MIC concentration (shown in respective tables; 5×MIC; 10×MIC and 100×MIC. The media used to grow cells was DMEM containing 10% FBS and 2%. Cells were incubated in the presence of the compounds for 24 hours at 37° C. and 5% CO2. Tetrazolium dye solution was added to each well and allowed to incubate for 1-4 h. Stabilization/Stop solution was added and allowed to sit at room temperature for 1 h. Formazan product was scored spectrophotometrically with an automatic plate reader set at 570 nm. 0.1% saponin was used as a positive control. 1% DMSO controls were also used since the compounds were reconstituted in DMSO.

[7] = test system: Candida albicans (ATCC no. 10231) and Candida glabrata (ATCC no 48435); test: Antifungal activity, text statements that do not say which fungus; assay type: cell-based
Protocol: The antifungal activity of the 2,4,6-pyrimidinetrione analogs shown in Schemes 2-6 were evaluated in vitro using Candida albicans (ATCC no. 10231) and Candida glabrata (ATCC no 48435). All assays were done in accordance with NCCLS reference documents^29. The results of these screenings are summarized in Tables 1-9 as the minimal inhibitory concentrations that inhibited more than 80% fungal growth as compared to the positive controls in 1% DMSO and RPMI media. All MIC screens were done using a visual scoring method as opposed to spectroscopic methods of analysis, due to the physical properties of many of the compounds altering their absorbance spectra relative to the positive, negative and drug controls.
None of the compounds tested over the course of these studies were soluble in water and DMSO was used to dilute each compound tested. Master stock concentrations of all tested compounds were prepared to ensure that the maximum final concentration of DMSO was 1% or less. Subsequent 2-fold serial dilutions were made using sterile water to a final concentration of 1280-5.00 μg/ml. A final 10-fold dilution of each drug was made by aliquotting 0.1 mL of each drug dilution into 0.9 mL of fungal suspension in RPMI 1640 media with 10 mM HEPES buffer added (see methodology below), giving final concentrations tested in the range of 128-0.5 μg/ml.
Antifungal susceptibility studies and minimal inhibitory concentrations (MIC) values for Candida albicans (ATCC no. 10231) and Candida glabrata (ATCC no. 48435) were determined by the broth microdilution technique in accordance with NCCLS reference documents. Microdilution panels ranged from 0.5 to 128 μg/mL. All organisms were subcultured on Sabouraud agar and passaged to ensure purity and viability. The initiating inocula were prepared by picking 5-7 isolated colonies ˜1 mm in diameter from freshly prepared YM agar plates. […] Growth was scored visually. […]

[8] = YPG 3% glycerol or YPE 3% ethanol versus YPD 2% glucose, pH 6.5, 30° C., OD600nm
[9] = Table 5, Schiff Bases of 5-acylpyrimidinetriones
[10] = Table 7, Phenylhydrazones of 5-Acylpyrimidinetriones

| Compound | MIC80 [3] | MIC80 [5] | reduction in cell viability [6] | MIC80 C. glabrata [3, 9] | inhibition of fungal growth (in words) [7] | also measured |
| --- | --- | --- | --- | --- | --- | --- |
| O=C1NC(=O)C(/C=N/Nc2ccc([N+](=O)[O-])cc2)C(=O)N1 [BA22, 5-{(E)-[2-(4-nitrophenyl)hydrazinylidene]methyl}pyrimidine-2,4,6-trione] | 1 µg/mL (≈ 3.43 µM) | 2 µg/mL (≈ 6.87 µM) |  |  |  | activity when Candida growth depends upon non-fermentable carbon sources ([1]; FIG. 2B, 24 hours, 30° C., % growth relative to DMSO control): enhanced; concentrations of BA22 required to inhibit the growth, glycerol or ethanol versus glucose [1, 8]: much lower; C. albicans colony formation [2]: significantly delayed in a dose dependent manner, eventually forming small colonies; activity when Candida growth depends upon non-fermentable carbon sources ([4]; FIG. 2A, 24 hours, 30° C., % growth relative to DMSO control): enhanced; concentrations of BA22 required to inhibit the growth, glycerol or ethanol versus glucose [4, 8]: much lower |
| C/C(=N\Nc1ccc([N+](=O)[O-])cc1)C1C(=O)NC(=O)NC1=O [BA25, 5-{(1E)-1-[2-(4-Nitrophenyl)hydrazinylidene]ethyl}pyrimidine-2,4,6-trione] | 2 µg/mL (≈ 6.55 µM) | 2 µg/mL (≈ 6.55 µM) | ~35% |  |  |  |
| CN1C(=O)C(C=Nc2ccccc2O)C(=O)N(C)C1=O [BA94] |  |  | ~35% | — (none of the 5-acyl-2,4,6-pyrimidinetriones, 5-alkylated pyrimidinetriones or the 5,5-dialkylated pyrimidinetriones showed antifungal activity through 125 μg/mL) |  | inhibitory activity of Candida albicans ([5]; Schiff base derivatives, Table 5): showed inhibitory activity; MIC80 C. albicans ([5]; Table 5, values marked *: compound displayed MIC with <50% inhibition): 8* μg/mL |
| C/C(=N\Nc1ccccc1)C1C(=O)N(C)C(=O)N(C)C1=O [BA78, 1,3-dimethyl-5-[(1E)-1-(2-phenylhydrazinylidene)ethyl]pyrimidine-2,4,6-trione] | 2 µg/mL (≈ 6.94 µM) | 2 µg/mL (≈ 6.94 µM) | ~35% |  |  |  |
| CN1C(=O)C(C=Nc2cccc(O)c2)C(=O)N(C)C1=O [BA95] |  |  |  | — (none of the 5-acyl-2,4,6-pyrimidinetriones, 5-alkylated pyrimidinetriones or the 5,5-dialkylated pyrimidinetriones showed antifungal activity through 125 μg/mL) | inactive | MIC80 C. albicans [5, 9]: — (none of the 5-acyl-2,4,6-pyrimidinetriones, 5-alkylated pyrimidinetriones or the 5,5-dialkylated pyrimidinetriones showed antifungal activity through 125 μg/mL) |
| CC(=NNc1ccc([N+](=O)[O-])cc1)C1C(=O)NC(=O)N(c2ccccc2)C1=O (centres unmarked) [BA28] |  |  |  |  | greatly reduced inhibition | MIC80 C. glabrata [3, 10]: 16 µg/mL (≈ 42 µM); MIC80 C. albicans [5, 10]: 31.5 µg/mL (≈ 82.6 µM) |
